The text below walks through data of patent publication US20220023337A1, “USE OF CHROMIUM HISTIDINATE FOR TREATMENT OF CARDIOMETABOLIC DISORDERS” (NUTRITION 21, LLC, priority 2007, published 2022).

In one data set the test system is rats. The conditions noted are these: cited from earlier work.
The conditions of data set [1]: rats, NSAID co-administered; cited from earlier work.
In another data set the test system is subject having impotence. As to the kind of experiment: Example 6: treatment of sexual dysfunction. The class given is in vivo. The conditions noted are these: about 50-5000 μg daily, orally. The method, then: A subject is identified as having impotence. The subject is orally administered between about 50 μg and 5000 μg chromium trihistidinate daily.
The subject of data set [2] is subject with compromised renal function. As to the kind of experiment: Example 10: treatment of renal disorders. The class given is in vivo. The conditions noted are these: between 50 μg and 5000 μg daily. The protocol:
A subject is identified with compromised renal function. […] The subject is administered an effective amount of chromium trihistidinate daily, e.g. between 50 μg and 5000 μg chromium trihistidinate daily. After a period of time, the subject's renal function improves.

The conditions of data set [3]: cited from earlier work.
The test system of data set [4] is subject having insulin resistance. The data set can be described thus: Example 5: treatment of insulin resistance. Type of data set: in vivo. The conditions noted are these: about 50-5000 μg daily, orally, in the form of a bar. The method, then:
A subject is identified as having insulin resistance. […] The subject is administered between about 50 μg and 5000 μg chromium polyhistidinate daily, orally, in the form of a bar.

Data set [5] relates to subject with diabetes or hyperglycemia. As to the kind of experiment: Example 11: treatment of glucose metabolism disorders. Type of data set: in vivo. The conditions noted are these: about 50-5000 μg daily, orally. The protocol:
A subject is identified with one or more glucose metabolism disorders such as diabetes or hyperglycemia. The subject is orally administered between about 50 μg and 5000 μg chromium polyhistidinate daily.

The test system of data set [6] is Hep G2 cells. As to the kind of experiment: Triglyceride secretion into culture media by HepG2 cells. The conditions noted are these: 0.2 μM, in the presence of insulin; p<0.05 vs control. The class given is cell-based, human. The protocol:
(§1) Hep G2 cells are liver cells derived from a human hepatoblastoma that is free of known hepatotropic viral agents. This cell line expresses a wide variety of liver-specific metabolic functions and is used as a model system to study cholesterol and triglyceride metabolism. The effects of chromium histidinate on triglyceride secretion and on media glucose levels, the HepG2 cell line was grown in culture media with or without insulin in the presence of 0, 0.2, 2, or 20 μM chromium histidinate. Media glucose levels and triglyceride levels were measured using standard protocols. Specifically, triglyceride levels were measured spectrophotometrically through hydrolysis by lipase and coupled enzyme reactions on the resulting glycerol. Glucose levels were measured spectrophotometrically using the glucose oxidase method, with a standard dilution curve serving to calibrate the measurements.

The subject of data set [7] is Hep G2 cells. The data set can be described thus: Media glucose levels of HepG2 cell cultures. The class given is cell-based, human. The conditions noted are these: 0.2 μM, in the absence of insulin; p<0.05 vs control. The method, then:
as §1

For another data set, the system named is normal rats. The data set can be described thus: Glucose and lipid metabolism in normal rats fed standard diet (groups 1 and 2). The conditions noted are these: standard diet + chromium histidinate 12 weeks. The protocol:
(§2) Wistar rats were reared at the temperature of (22±2° C.), humidity (55±5%) and a 12/12 h light/dark cycle. Pellet food and water were provided ad libitum.
(§3) Fat-fed/STZ treated rats provide an animal model for type 2 diabetes that simulates the human syndrome, and is suitable for the testing of antidiabetic compounds (See, e.g., Reed et al. (2000) Metabolism 49(11):1390-1394). Rats fed a high fat diet can be used as a model system for insulin resistance. Ten Wistar rats (55 days old) in each group were treated as follows:
Group 1: Control rats were fed standard diet (12% of calories as fat) for 12 weeks.
Group 2: Control rats were fed standard diet+chromium histidinate for 12 weeks.

The subject of a further data set is insulin resistant rats. As to the kind of experiment: Glucose and lipid metabolism in insulin resistant rats fed high fat diet (groups 3 and 4). Type of data set: in vivo, Wistar rats. The conditions noted are these: approx. 110 mcg/kg body.d in water, 12 weeks. The method, then:
as §2, §3
Group 3: Rats were fed high fat diet (40% of calories as fat) for 12 weeks.
Group 4: Rats were fed high-fat diet (40% of calories as fat) and chromium histidinate (approx. 110 mcg/kg body.d) was included into water for 12 weeks.

Another data set relates to diabetic rats. As to the kind of experiment: Glucose and lipid metabolism in high fat diet/streptozotocin diabetic rats (groups 5 and 6). Type of data set: in vivo, Wistar rats. The conditions noted are these: high-fat diet + STZ 40 mg/kg i.p. rats, 110-mcg/kg body.d in water, 10 weeks. The protocol:
as §2, §3
Group 5: Rats were fed high-fat diet (40% of calories as fat) for 2 weeks and then injected with streptozotocin (STZ, 40 mg/kg i.p.) for 12 weeks.
Group 6: Rats were fed high-fat diet (40% of calories as fat) for 2 weeks and then injected with streptozotocin (STZ, 40 mg/kg i.p.) and chromium histidinate was included into water at a concentration of 110-mcg/kg body.d for 10 weeks.
Before STZ injection glucose concentrations of rats were measured and compared to controls.

The test system of data set [8] is subject having cardiometabolic syndrome. As to the kind of experiment: Example 3: treatment of cardiometabolic syndrome. Type of data set: in vivo. The conditions noted are these: between 50 μg and 5000 μg/day, orally. The protocol: A subject is identified as having cardiometabolic syndrome. The subject presents with one or more symptoms associated with cardiometabolic syndrome such as obesity, hypertension, dyslipidemia, impaired glucose tolerance, diabetes, an increase in C-reactive protein, and increase in TNFα, an increase in IL-6, an increase in IL-10, or an increase in oxidative stress.
The individual is administered between 50 μg and 5000 μg chromium histidinate complex/day, orally. The chromium histidinate is administered orally.

In data set [9] the test system is subject with cardiovascular disease. The data set can be described thus: Example 8: treatment of cardiovascular disease. Type of data set: in vivo. The conditions noted are these: about 50-5000 μg daily. The method, then:
A subject is identified with cardiovascular disease. […] The subject is provided between about 50 μg and 5000 μg chromium histidinate daily. After a period of time, the subject's arteriosclerosis, atherosclerosis, peripheral vascular disease, or coronary heart disease improves.

Data set [10] has the same test system. As to the kind of experiment: Example 9: treatment of cardiovascular disease with combination therapy. Type of data set: in vivo. The conditions noted are these: about 50-5000 μg daily plus a second therapeutic for cardiovascular disease. The protocol: A subject is identified with cardiovascular disease. […] The subject is provided between about 50 μg and 5000 μg chromium histidinate daily. The subject is also provided a therapeutically effective amount of a second therapeutic for cardiovascular disease such as peripheral antiadrenergic therapy, antihypertensive drugs, vasodilators, inodilators, cardiac glycosides, antidysrhythmic drugs. After a period of time, the subject's arteriosclerosis, atherosclerosis, peripheral vascular disease, or coronary heart disease improves.

Data set [11] has as its system subject with a PPAR associated disorder. The data set can be described thus: Example 13: treatment of PPAR disorders. The conditions noted are these: about 50-5000 μg, orally, daily. Type of data set: in vivo. The method, then: A subject is identified with a PPAR associated disorder. The subject has one or more of the following symptoms or conditions: rheumatoid arthritis, multiple sclerosis, inflammatory bowel disease, breast, colon, or prostate cancer, low levels of blood, lymph and/or cerebrospinal fluid apoE and/or apo A-1, elevated serum VLDL cholesterol levels, elevated serum LDL cholesterol levels, elevated triglyceride levels, elevated serum apo B levels, or the like. The subject is administered between about 50 μg and 5000 μg chromium histidinate, orally, daily. After a period of time, the subject's symptoms improve.

The test system of data set [12] is subject having a dyslipidemia. The data set can be described thus: Example 14: treatment of dyslipidemia. Type of data set: in vivo. The conditions noted are these: about 50-5000 μg daily, orally; one or more of the listed changes. The protocol: A subject is identified as having a dyslipidemia. […] The subject is administered between about 50 μg and 5000 μg chromium histidinate daily, orally.

Like-named read-outs stand apart in the source and are kept apart here.

Take `[Cl][Cr]([Cl])[Cl]` [chromium chloride]: the toxic effects entry with rats (rats, levels several thousand times the upper limit of the ESADDI for chromium for humans (based on body weight)) is recorded as “without toxic effects”.

chromium picolinate: in the data set with rats (rat, in vivo), the toxic effects entry is recorded as “without toxic effects”.

With `CC(=O)Oc1ccccc1C(=O)O` [aspirin], the “chromium absorption following oral administration of CrCl3” value in [1] is “facilitated”.

With chromium trihistidinate, the sexual function result in the data set with subject having impotence was “improved”. Moreover, the renal function entry in data set [2] is given as “improves”.

In the case of `N[C@@H](Cc1c[nH]cn1)C(=O)O` [histidine], in [3], the pKa was roughly 6.0.

For the compound chromium polyhistidinate, in data set [4], the hyperinsulinemia result is given as “decreased” and the insulin function result is “improved”. Besides, the “fasting and/or post-prandial glucose levels” value in data set [5] is on record as “improvement”.

As for chromium histidinate, the “triacylglycerol (triglycerides secreted into culture media)” value in the data set with Hep G2 cells [6] is “significantly decreased”. In the data set with Hep G2 cells [7], the “glucose in the media” value is “significant decrease”. In addition, in the data set on normal rats, the “free fatty acid levels” value is “decreases”, the insulin levels result is “increases”, the insulin sensitivity result is “increases” and the serum chromium levels result was “increases”. Also, in the data set with normal rats, the serum glucose levels entry is “lowers”, the serum triglyceride levels entry is “decreases” and the “total serum cholesterol levels” value is given as “decreases”. Also, in the data set with insulin resistant rats, the body weight result was “significantly lowers”, the cortisol levels entry is recorded as “decreases”, the “free fatty acid levels” value is “decreases” and the insulin levels entry was “increases”. In addition, in the data set with insulin resistant rats, the insulin sensitivity result is on record as “increases”, the serum glucose levels result is reported as “lowers”, the “total serum cholesterol levels” value was “decreases” and the triglyceride levels entry is on record as “decreases”. Also, in the data set on diabetic rats, the body weight entry is given as “significantly lowers”, the cortisol levels result is on record as “decreases”, the “free fatty acid levels” value is “decreases” and the insulin levels result is “increases”. For the same compound, in the data set with diabetic rats, the insulin sensitivity result was “increases”, the serum glucose levels result is “lowers”, the “total serum cholesterol levels” value is reported as “decreases” and the triglyceride levels entry is given as “decreases”. For the same compound, in [8], the “symptoms associated with cardiometabolic syndrome” value was “reduction in one or more of the symptoms”. For the same compound, the “arteriosclerosis, atherosclerosis, peripheral vascular disease, or coronary heart disease” value in data set [9] was “improves”. In addition, in data set [10], the “arteriosclerosis, atherosclerosis, peripheral vascular disease, or coronary heart disease” value is given as “improves”. The “symptoms of PPAR associated disorder” value in data set [11] was “improve”. Besides, in data set [12], the “serum HDL cholesterol levels” value is “increased”, the “serum LDL cholesterol levels” value was “decreased”, the serum triglyceride levels result was “decreased” and the “total serum cholesterol levels” value is on record as “decreased”.

One may read the pKa as the negative logarithm of the acid dissociation constant.
